Reference: patent publication US20190358286A1, “METHODS FOR THE PREVENTION OR TREATMENT OF LEFT VENTRICLE REMODELING” (Stealth BioTherapeutics Corp., priority 2013, published 2019)
Non-standard residues stand in square brackets, D forms with d. Residues, ends and D or L forms follow the SMILES beside them. Dmt = Cc1cc(O)cc(C)c1C[C@H](N)C(=O)O

Tests used:
[1] = system: several mammalian cell types; settings: energy-independent manner; cited from earlier work
[2] = system: rats with permanent coronary artery occlusion; test: Deaths during 6 weeks treatment; type: in vivo, rat; settings: 74 rats randomized to peptide or water
Protocol: Rats were anesthetized, ventilated, and a thoracotomy performed in the left 4th intercostal space. Temperature was maintained at 36° C. by placing the rats on a heating pad during the procedure. The pericardium was excised and the proximal left coronary artery isolated and permanently occluded with a suture. Coronary artery occlusion was confirmed by cyanosis and akinesis of the anterior wall of the ventricle. The chest was closed, air evacuated, and the rats allowed to recover. Analgesia was administered per the veterinarian. An echocardiogram was obtained at approximately 15 minutes post coronary artery occlusion. At 2 hours rats were randomized to receive chronic daily D-Arg-2′,6′-Dmt-Lys-Phe-NH2 (delivered subcutaneously by an Alzet Osmotic Pump—3 mg/kg/day) or water. […] Heart rate and blood pressure were measured. A Millar catheter was inserted into the left ventricle and LV systolic pressure, LV end diastolic pressure, +dP/dt, and −dP/dt were measured. […] Postmortem left ventricle volume was measured by filling the LV cavity with fluid and measuring the total fluid. […] Quantitative histologic analysis included: total circumference, scar circumference, non-infarcted wall circumference, total LV area, total LV cavity area, LV wall thickness (at several points), non-infarcted wall thickness; myocardial infarct expansion index. […]

2′,6′-Dmt-D-Arg-Phe-Lys-NH2
penetration of the plasma membrane [1]: readily penetrates

Cc1cc(O)cc(C)c1C[C@H](NC(=O)[C@H](N)CCCNC(=N)N)C(=O)N[C@@H](CCCCN)C(=O)N[C@@H](Cc1ccccc1)C(N)=O [D-Arg-2′,6′-Dmt-Lys-Phe-NH2] (H-[dR][Dmt]KF-NH2)
deaths during the 6 weeks treatment [2]: no rats died
